According to ChEMBL document CHEMBL2157867, “2-(4-Chlorophenyl)-2-oxoethyl 4-benzamidobenzoate derivatives, a novel class of SENP1 inhibitors: Virtual screening, synthesis and biological evaluation” (Bioorg Med Chem Lett, 2012):

Target: T1, Sentrin-specific protease 1 (Homo sapiens, UniProt Q9P0U3)
T1 sequence (Q9P0U3 whole entry): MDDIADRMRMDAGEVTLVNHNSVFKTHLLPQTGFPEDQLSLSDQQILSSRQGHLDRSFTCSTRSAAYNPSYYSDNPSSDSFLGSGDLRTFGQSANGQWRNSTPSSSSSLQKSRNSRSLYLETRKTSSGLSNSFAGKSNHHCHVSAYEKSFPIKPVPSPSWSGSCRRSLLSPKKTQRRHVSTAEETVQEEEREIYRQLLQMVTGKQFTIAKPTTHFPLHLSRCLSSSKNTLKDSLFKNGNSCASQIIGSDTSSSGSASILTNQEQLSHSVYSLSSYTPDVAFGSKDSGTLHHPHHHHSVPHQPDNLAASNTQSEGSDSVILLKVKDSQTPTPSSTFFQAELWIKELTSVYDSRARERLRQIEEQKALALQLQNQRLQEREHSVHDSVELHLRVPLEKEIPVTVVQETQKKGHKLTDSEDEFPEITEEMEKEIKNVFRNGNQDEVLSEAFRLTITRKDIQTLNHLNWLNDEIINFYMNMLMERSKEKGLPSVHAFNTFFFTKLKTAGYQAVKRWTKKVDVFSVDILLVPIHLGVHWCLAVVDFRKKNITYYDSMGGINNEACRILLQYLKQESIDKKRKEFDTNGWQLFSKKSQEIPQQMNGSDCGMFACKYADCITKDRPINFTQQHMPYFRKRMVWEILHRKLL
Assay: Inhibition of recombinant His-tagged SENP1 catalytic domain expressed in Escherichia coli BL21(DE3) using His-tagged deltaRanGAP-SUMO2 as substrate incubated for 10 mins prior to substrate addition measured after 45 mins by SDS-PAGE analysis

IC50 [µM] | SMILES
> 50 | Nc1cccc(C(=O)Nc2ccc(C(=O)OCC(=O)c3ccc(Cl)cc3)cc2)c1
> 50 | CCOc1ccc(C(=O)Nc2ccc(C(=O)OCC(=O)c3ccc(Cl)cc3)cc2)cc1OCC
> 50 | O=C(COC(=O)c1ccc(NC(=O)c2cccc(O)c2)cc1)c1ccc(Cl)cc1
> 50 | COc1ccc(C(=O)Nc2ccc(C(=O)OCC(=O)c3ccc(Cl)cc3)cc2)cc1OC
